The target in series [1] is T1, human serum albumin (HSA) (Homo sapiens, UniProt P02768). The series is described as follows: in vitro. Conditions: pH 7.4.
Procedure: (§1) Streptavidin-SPA beads (GE Healthcare RPNQ0009) were incubated with biotinylated HSA for 5 hours. The beads were washed with buffer to remove unbound HSA. […] After 20 hours of gentle rocking at room temperature the plates were centrifuged and counted on a TopCounter.
Series [2] concerns the target T1, human serum albumin (HSA). The series is described as follows: Albumin binding affinity, competition scintillation proximity assay. Conditions: for EC50 at 20 h: human, biotinylated human serum albumin on streptavidin-SPA beads, pH 7.4.
Procedure: as §1

This passage reports EC50 results from patent US9067977B2, “Peptides derivatized with A-B-C-D- and their therapeutical use” (Novo Nordisk A/S, priority 2007, dated 2015).

pEC50: −log10 of the molar value. Starred links: 1 amine or outer side, 2 acyl side, 3 side chain; linkers in the order of their positions; H or OH if unused. Non-standard residues stand in square brackets, D forms with d. Residues, ends and D or L forms follow the SMILES beside them. Groups on a side chain read outwards from the residue. *: point of attachment. X1 = O=C(CCCCCCCCCCCCCCCc1nnn[nH]1)NS(=O)(=O)CCCC(=O)*; C20 diacid = O=C(O)CCCCCCCCCCCCCCCCCCC(=O)*; γGlu = O=C(O)[C@H](CCC(=O)[*:2])N[*:1]; Desaminohistidyl = O=C(CCc1c[nH]cn1)*; 12Ado = NCCCCCCCCCCCC(=O)O; AEEA = NCCOCCOCC(=O)O; Aib = CC(C)(N)C(=O)O; Inp = O=C(O)C1CCNCC1

T1 sequence (P02768 25-609): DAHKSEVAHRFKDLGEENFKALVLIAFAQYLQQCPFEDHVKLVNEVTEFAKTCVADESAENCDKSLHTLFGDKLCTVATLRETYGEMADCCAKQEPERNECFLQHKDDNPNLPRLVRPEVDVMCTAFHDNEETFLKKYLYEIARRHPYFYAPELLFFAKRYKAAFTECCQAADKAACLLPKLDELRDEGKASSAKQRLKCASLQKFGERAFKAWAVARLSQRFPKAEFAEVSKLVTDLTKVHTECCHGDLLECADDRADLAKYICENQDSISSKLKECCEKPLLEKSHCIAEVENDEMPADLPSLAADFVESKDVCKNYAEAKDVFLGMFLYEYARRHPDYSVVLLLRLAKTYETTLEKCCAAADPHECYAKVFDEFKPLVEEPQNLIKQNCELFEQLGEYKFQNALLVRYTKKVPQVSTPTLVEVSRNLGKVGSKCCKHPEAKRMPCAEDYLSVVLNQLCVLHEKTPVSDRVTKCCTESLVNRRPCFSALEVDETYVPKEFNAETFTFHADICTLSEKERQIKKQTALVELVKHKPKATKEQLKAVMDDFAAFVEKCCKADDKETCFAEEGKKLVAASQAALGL

For `CC[C@H](C)[C@H](NC(=O)[C@H](Cc1ccccc1)NC(=O)[C@H](CCC(=O)O)NC(=O)[C@H](CCCCNC(=O)COCCOCCNC(=O)CC[C@H](NC(=O)CC[C@H](NC(=O)CCCCCCCCCCCNC(=O)CCCS(=O)(=O)NC(=O)CCCCCCCCCCCCCCCc1nnn[nH]1)C(=O)O)C(=O)O)NC(=O)[C@H](C)NC(=O)[C@H](C)NC(=O)[C@H](CCC(N)=O)NC(=O)CNC(=O)[C@H](CCC(=O)O)NC(=O)[C@H](CC(C)C)NC(=O)[C@H](Cc1ccc(O)cc1)NC(=O)[C@H](CO)NC(=O)[C@H](CO)NC(=O)[C@@H](NC(=O)[C@H](CC(=O)O)NC(=O)[C@H](CO)NC(=O)[C@@H](NC(=O)[C@H](Cc1ccccc1)NC(=O)[C@@H](NC(=O)CNC(=O)[C@H](CCC(=O)O)NC(=O)C(C)(C)NC(=O)[C@@H](N)Cc1c[nH]cn1)[C@@H](C)O)[C@@H](C)O)C(C)C)C(=O)N[C@@H](C)C(=O)N[C@@H](Cc1c[nH]c2ccccc12)C(=O)N[C@@H](CC(C)C)C(=O)N[C@H](C(=O)N[C@@H](CCCNC(=N)N)C(=O)NCC(=O)O)C(C)C` [Example 39, N-epsilon26-[2-(2-{2-[(S)-4-Carboxy-4-((S)-4-carboxy-4-{12-[4-(16-(1H-tetrazol-5-yl)hexadecanoylsulfamoyl)butyrylamino]dodecanoylamino}butyrylamino)butyrylamino]ethoxy}ethoxy)acetyl][Aib8,Arg34]GLP-1-(7-35)], the EC50 at 20 h in series [1] fell in the range of 1 to 100 nM.

`CC[C@H](C)[C@H](NC(=O)[C@H](Cc1ccccc1)NC(=O)[C@H](CCC(=O)O)NC(=O)[C@H](CCCCNC(=O)COCCOCCNC(=O)CC[C@H](NC(=O)CC[C@H](NC(=O)CCCCCNC(=O)CCCS(=O)(=O)NC(=O)CCCCCCCCCCCCCCCc1nnn[nH]1)C(=O)O)C(=O)O)NC(=O)[C@H](C)NC(=O)[C@H](C)NC(=O)[C@H](CCC(N)=O)NC(=O)CNC(=O)[C@H](CCC(=O)O)NC(=O)[C@H](CC(C)C)NC(=O)[C@H](Cc1ccc(O)cc1)NC(=O)[C@H](CO)NC(=O)[C@H](CO)NC(=O)[C@@H](NC(=O)[C@H](CC(=O)O)NC(=O)[C@H](CO)NC(=O)[C@@H](NC(=O)[C@H](Cc1ccccc1)NC(=O)[C@@H](NC(=O)CNC(=O)[C@H](CCC(=O)O)NC(=O)C(C)(C)NC(=O)[C@@H](N)Cc1c[nH]cn1)[C@@H](C)O)[C@@H](C)O)C(C)C)C(=O)N[C@@H](C)C(=O)N[C@@H](Cc1c[nH]c2ccccc12)C(=O)N[C@@H](CC(C)C)C(=O)N[C@H](C(=O)N[C@@H](CCCNC(=N)N)C(=O)NCC(=O)O)C(C)C` [Example 40, N-epsilon26-[2-(2-{2-[(S)-4-Carboxy-4-((S)-4-carboxy-4-{6-[4-(16-(1H-tetrazol-5-yl)hexadecanoylsulfamoyl)butyrylamino]hexanoylamino}butyrylamino)butyrylamino]ethoxy}ethoxy)acetyl][Aib8,Arg34]GLP-1-(7-35)] registered an EC50 at 20 h in series [1] of 150 to 300 nM. As for `CC[C@H](C)[C@H](NC(=O)[C@H](Cc1ccccc1)NC(=O)[C@H](CCC(=O)O)NC(=O)[C@H](CCCCNC(=O)COCCOCCNC(=O)CC[C@H](NC(=O)CC[C@H](NC(=O)CCCCCCCCCCCNC(=O)CCCS(=O)(=O)NC(=O)CCCCCCCCCCCCCCCc1nnn[nH]1)C(=O)O)C(=O)O)NC(=O)[C@H](C)NC(=O)[C@H](C)NC(=O)[C@H](CCC(N)=O)NC(=O)CNC(=O)[C@H](CCC(=O)O)NC(=O)[C@H](CC(C)C)NC(=O)[C@H](Cc1ccc(O)cc1)NC(=O)[C@H](CO)NC(=O)[C@H](CO)NC(=O)[C@@H](NC(=O)[C@H](CC(=O)O)NC(=O)[C@H](CO)NC(=O)[C@@H](NC(=O)[C@H](Cc1ccccc1)NC(=O)[C@@H](NC(=O)CNC(=O)[C@H](CCC(=O)O)NC(=O)C(C)(C)NC(=O)[C@@H](N)Cc1c[nH]cn1)[C@@H](C)O)[C@@H](C)O)C(C)C)C(=O)N[C@@H](C)C(=O)N[C@@H](Cc1c[nH]c2ccccc12)C(=O)N[C@@H](CC(C)C)C(=O)N[C@@H](CCCCN)C(=O)NCC(=O)O` [Example 43, N-epsilon26-[2-(2-{2-[(S)-4-Carboxy-4-((S)-4-carboxy-4-{12-[4-(16-(1H-tetrazol-5-yl)hexadecanoylsulfamoyl)butyrylamino]dodecanoylamino}butyrylamino)butyrylamino]ethoxy}ethoxy)acetyl][Aib8,Lys33,Arg34]GLP-1-(7-34)], the pEC50 in series [1] was 7.00 to 9.00.

`CC[C@H](C)[C@H](NC(=O)[C@H](Cc1ccccc1)NC(=O)[C@H](CCC(=O)O)NC(=O)[C@H](CCCNC(=N)N)NC(=O)[C@H](C)NC(=O)[C@H](C)NC(=O)[C@H](CCC(N)=O)NC(=O)CNC(=O)[C@H](CCC(=O)O)NC(=O)[C@H](CC(C)C)NC(=O)[C@H](Cc1ccc(O)cc1)NC(=O)[C@H](CO)NC(=O)[C@H](CO)NC(=O)[C@@H](NC(=O)[C@H](CC(=O)O)NC(=O)[C@H](CO)NC(=O)[C@@H](NC(=O)[C@H](Cc1ccccc1)NC(=O)[C@@H](NC(=O)CNC(=O)[C@H](CCC(=O)O)NC(=O)[C@H](C)NC(=O)CCc1c[nH]cn1)[C@@H](C)O)[C@@H](C)O)C(C)C)C(=O)N[C@@H](C)C(=O)N[C@@H](Cc1c[nH]c2ccccc12)C(=O)N[C@@H](CC(C)C)C(=O)N[C@H](C(=O)N[C@@H](CCCNC(=N)N)C(=O)NCC(=O)N[C@@H](CCCNC(=N)N)C(=O)N[C@@H](CCCCNC(=O)COCCOCCNC(=O)CC[C@H](NC(=O)CC[C@H](NC(=O)CCCCCCCCCCCNC(=O)CCCS(=O)(=O)NC(=O)CCCCCCCCCCCCCCCc1nnn[nH]1)C(=O)O)C(=O)O)C(=O)O)C(C)C` [Example 65, N-epsilon37-[2-(2-{2-[(S)-4-Carboxy-4-((S)-4-carboxy-4-{12-[4-(16-(1H-tetrazol-5-yl)hexadecanoylsulfamoyl)butyrylamino]dodecanoylamino}butyrylamino)butyrylamino]ethoxy}ethoxy)acetyl][DesaminoHis7,Arg26,Arg34,Lys37]GLP-1-(7-37)] gave a concentration giving a half-maximal response (EC50) at 20 h in series [2] of 1 to 100 nM. The compound `CC[C@H](C)[C@H](NC(=O)[C@H](Cc1ccccc1)NC(=O)[C@H](CCC(=O)O)NC(=O)[C@H](CCCNC(=N)N)NC(=O)[C@H](C)NC(=O)[C@H](C)NC(=O)[C@H](CCC(N)=O)NC(=O)[C@H](CCC(=O)O)NC(=O)[C@H](CCC(=O)O)NC(=O)[C@H](CC(C)C)NC(=O)[C@H](Cc1ccc(O)cc1)NC(=O)[C@H](CO)NC(=O)[C@H](CO)NC(=O)[C@@H](NC(=O)[C@H](CC(=O)O)NC(=O)[C@H](CO)NC(=O)[C@@H](NC(=O)[C@H](Cc1ccccc1)NC(=O)[C@@H](NC(=O)CNC(=O)[C@H](CCC(=O)O)NC(=O)[C@H](C)NC(=O)CCc1c[nH]cn1)[C@@H](C)O)[C@@H](C)O)C(C)C)C(=O)N[C@@H](C)C(=O)N[C@@H](Cc1c[nH]c2ccccc12)C(=O)N[C@@H](CC(C)C)C(=O)N[C@H](C(=O)N[C@@H](CCCNC(=N)N)C(=O)NCC(=O)N[C@@H](CCCNC(=N)N)C(=O)NCC(=O)N[C@@H](CCCCNC(=O)COCCOCCNC(=O)CC[C@H](NC(=O)CC[C@H](NC(=O)CCCCCCCCCCCNC(=O)CCCS(=O)(=O)NC(=O)CCCCCCCCCCCCCCCc1nnn[nH]1)C(=O)O)C(=O)O)C(N)=O)C(C)C` [Example 67, [ImPr^7,Arg^26,34,Glu^22]GLP-1-(7-37)Lys[2-(2-[2-((S)-4-((S)-4-(12-[4-(16-1H-tetrazol-5-ylhexadecanoylsulfamoyl)butyrylamino]dodecanoylamino)-4-carboxybutyrylamino)-4-carboxybutyrylamino)ethoxy]ethoxy)acetyl]-amid] (Desaminohistidyl-AEGTFTSDVSSYLEEQAAREFIAWLVRGRGK([AEEA-γGlu-γGlu-12Ado-X1])-NH2) had a pEC50 in series [2] of 7.00 to 9.00.

Turning to `CC[C@H](C)[C@H](NC(=O)[C@H](Cc1ccccc1)NC(=O)[C@H](CCC(=O)O)NC(=O)[C@H](CCCCNC(=O)COCCOCCNC(=O)COCCOCCNC(=O)CC[C@H](NC(=O)C1CCN(C(=O)CCCCCCCCCCCCCCCCCCC(=O)O)CC1)C(=O)O)NC(=O)[C@H](C)NC(=O)[C@H](C)NC(=O)[C@H](CCC(N)=O)NC(=O)[C@H](CCC(=O)O)NC(=O)[C@H](CCC(=O)O)NC(=O)[C@H](CC(C)C)NC(=O)[C@H](Cc1ccc(O)cc1)NC(=O)[C@H](CO)NC(=O)[C@H](CO)NC(=O)[C@@H](NC(=O)[C@H](CC(=O)O)NC(=O)[C@H](CO)NC(=O)[C@@H](NC(=O)[C@H](Cc1ccccc1)NC(=O)[C@@H](NC(=O)CNC(=O)[C@H](CCC(=O)O)NC(=O)C(C)(C)NC(=O)[C@@H](N)Cc1c[nH]cn1)[C@@H](C)O)[C@@H](C)O)C(C)C)C(=O)N[C@@H](C)C(=O)N[C@@H](Cc1c[nH]c2ccccc12)C(=O)N[C@@H](CC(C)C)C(=O)N[C@H](C(=O)N[C@@H](CCC(N)=O)C(=O)NCC(=O)N[C@@H](CCCNC(=N)N)C(=O)NCC(=O)O)C(C)C` [Example 69] (H-H[Aib]EGTFTSDVSSYLEEQAAK([AEEA-AEEA-γGlu-Inp-C20 diacid])EFIAWLVQGRG-OH), the pEC50 in series [2] was 6.82 to 7.00. Take `CC[C@H](C)[C@H](NC(=O)[C@H](Cc1ccccc1)NC(=O)[C@H](CCC(=O)O)NC(=O)[C@H](CCCNC(=N)N)NC(=O)[C@H](C)NC(=O)[C@H](C)NC(=O)[C@H](CCC(N)=O)NC(=O)C(C)(C)NC(=O)[C@H](CCC(=O)O)NC(=O)[C@H](CC(C)C)NC(=O)[C@H](Cc1ccc(O)cc1)NC(=O)[C@H](CCCCNC(=O)COCCOCCNC(=O)COCCOCCNC(=O)CC[C@H](NC(=O)C1CCN(C(=O)CCCCCCCCCCCCCCCCCCC(=O)O)CC1)C(=O)O)NC(=O)[C@H](CO)NC(=O)[C@@H](NC(=O)[C@H](CC(=O)O)NC(=O)[C@H](CO)NC(=O)[C@@H](NC(=O)[C@H](Cc1ccccc1)NC(=O)[C@@H](NC(=O)CNC(=O)[C@H](CCC(=O)O)NC(=O)C(C)(C)NC(=O)[C@@H](N)Cc1c[nH]cn1)[C@@H](C)O)[C@@H](C)O)C(C)C)C(=O)N[C@@H](C)C(=O)N[C@@H](Cc1c[nH]c2ccccc12)C(=O)N[C@@H](CC(C)C)C(=O)N[C@H](C(=O)N[C@@H](CCCNC(=N)N)C(=O)NC(C)(C)C(=O)N[C@@H](CCCNC(=N)N)C(=O)NCC(=O)O)C(C)C` [Example 70] (H-H[Aib]EGTFTSDVSK([AEEA-AEEA-γGlu-Inp-C20 diacid])YLE[Aib]QAAREFIAWLVR[Aib]RG-OH): the EC50 at 20 h in series [2] lay in the range of 800 to 2000 nM.
